Data published in US9260382B2, “Methods of reducing virulence in bacteria” (priority 2010, dated 2016).
Where “and” joins values, the source holds several entries; their conditions need not be identical. Identical values can stand only once.

Experiments:
hrpA promoter (T3SS) [1] = assay: GFP reporter plasmid phrpA, flow cytometry (FACS) of hrpA promoter activity; assay type: cell-based, Dickeya dadantii 3937; settings: for change of average GFP fluorescence intensity of Ech3937 (phrpA) vs MM alone, in words: 0.1 mM; for GFP Mean Fluorescence Intensity, hrpA promoter: MM + 0.1 mM compound
Summary of the method: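 D. dadantii (Ech) 3937 carrying the phrpA promoter–GFP transcriptional fusion was grown in T3SS minimal medium with 100 μM compound, starting from an inoculum of OD600 1.0. GFP was read by flow cytometry at 12 and 24 h. Values are mean fluorescence intensity of three replicates ± SD, with compound-free MM as control.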

hrpL promoter = assay: GFP reporter plasmid phrpL, flow cytometry of hrpL promoter activity; assay type: cell-based, Dickeya dadantii 3937; settings: for mean fluorescence intensity of GFP, hrpL promoter: 3937 (phrpL), MM + 100 μM; for GFP Mean Fluorescence Intensity, hrpL promoter: MM + 0.1 mM compound
Procedure: (§1) FACS analysis of promoter activity of dspE, hrpA, hrpL, hrpN, and hrpS was carried out as described (Peng et al., 2006). Briefly, the wild-type Ech3937 and the mutant strains carrying the promoter reporter plasmid were grown on LB broth at 28° C. overnight and transferred to appropriate media. For FACS analysis, samples were collected by centrifugation, washed with 1× phosphate buffer saline (PBS) at 13,000 rpm for 1 min, and re-suspended in 1×PBS to ca 10^6 CFU/ml prior to being run in a FACS Calibur flow cytometer (BD Biosciences, CA). Three replicates were performed for each treatment.

hrpS promoter = assay: GFP reporter plasmid phrpS, flow cytometry of hrpS promoter activity; assay type: cell-based, Dickeya dadantii 3937; settings: for mean fluorescence intensity of GFP, hrpS promoter: 3937 (phrpS), MM + 100 μM; for GFP Mean Fluorescence Intensity, hrpS promoter: MM + 0.1 mM compound
Summary of the method: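 Wild-type Ech3937 and mutant strains carrying the phrpS GFP reporter were grown overnight in LB at 28 °C, then transferred to appropriate media with compounds. Cells were washed and resuspended in PBS to ca 10^6 CFU/ml for flow cytometry, three replicates per treatment.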

[2] = test system: pPROBE-AT vector without promoter insert; assay: pPROBE-AT vector control, flow cytometry; assay type: cell-based, Dickeya dadantii 3937; settings: for mean fluorescence intensity of GFP, vector control: 3937 (pPROBE-AT), MM + 100 μM; for GFP Mean Fluorescence Intensity, vector control: Ech3937 (pPROBE-AT), MM + 0.1 mM compound
Procedure: as §1

hrpA promoter (T3SS) [3] = assay: hrpA promoter-probe phrpA in Erwinia amylovora 273, flow cytometry; assay type: cell-based; settings: Ea273 (phrpA), HIM + 100 μM compound
Summary of the method: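 Erwinia amylovora 273 carrying an hrpA promoter–GFP fusion (pPROBE-NT) was grown in hrp-inducing medium with 100 μM compound or DMSO. Promoter activity read as GFP intensity by flow cytometry at 6 h and 9 h.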

[4] = test system: Dickeya dadantii 3937 (Ech3937); assay: Bacterial growth in MM supplemented with compound; assay type: cell-based; settings: compound added into the MM
Source text: Phenolic compounds constitute an important class of organic substances produced by plants. The phenolic compound SA is a signaling molecule that plays a role in host defenses. OCA and TCA are the biosynthetic precursors of SA and are also reported to induce the expression of defense-related genes in plants. OCA, TCA, and SA were examined to elucidate their effects on the expression of T3SS genes. The expression of the T3SS gene hrpN was examined in MM and MM supplemented with OCA, TCA, and SA, at concentrations of 0.05, 0.1, and 0.2 mM, respectively. FIGS. 2A and 2B show the promoter activities of hrpN in Dickeya dadantii 3937 (Ech3937) grown in MM and MM supplemented with 0.05, 0.1, and 0.2 mM OCA, TCA, and SA at 12 h (FIG. 2A) and 24 h (FIG. 2B) post-inoculation. GFP intensity was determined on gated populations of bacterial cells by flow cytometry and analyzed with the Cell Quest software (BD Biosciences, San Jose, Calif.). The growth of Ech3937 in MM supplemented with different concentrations of OCA, TCA and SA was recorded. Compared with MM alone, the average GFP fluorescence intensity of bacterial cells of Ech3937 (phrpN) was increased approximately 4-fold when 0.05 mM of OCA and TCA were added to the medium (FIGS. 2A, 2B).
The expression of the T3SS gene hrpA was further examined in MM and MM supplemented with PCA at concentrations of 0.001, 0.005, 0.01, 0.05 and 0.1 mM respectively. FIGS. 16A and 16B show the promoter activities of hrpA in Dickeya dadantii 3937 (Ech3937) grown in minimum medium (MM) and MM supplemented with different amount of p-coumaric acid (PCA) at 12 h (FIG. 16A) and 24 h (FIG. 16B) post-inoculation. GFP intensity was determined on gated populations of bacterial cells by flow cytometry and analyzed with the Cell Quest software (BD Biosciences, San Jose, Calif.). The growth of Ech3937 in MM supplemented with different concentrations of PCA was recorded. Compared with MM alone, the average GFP fluorescence intensity of bacterial cells of Ech3937 (phrpA) was reduced more than 4-fold when 0.05 and 0.1 mM of PCA were added to the medium (FIGS. 16A, 16B).

[5] = Trial 1, MM supplemented with compound at 100 μM
[6] = hrpL mutant WPP96 (phrpA), 12 h
[7] = hrpL mutant WPP96 (phrpS), 12 h

In the case of `O=C(/C=C/c1ccc(O)cc1)NO` [Compound 103, trans-4-Hydroxycinnamohydroxamic acid], the “reduction of hrpA expression” value (hrpA promoter (T3SS) [1]; 10 μM added to the medium) is reported as “approximately 4 fold”, the “inhibitory activity on T3SS gene (hrpA) expression, in words” value (hrpA promoter (T3SS) [1]; D. dadantii 3937, reporter plasmid phrpA, 100 μM) is reported as “showed inhibitory effect” and the minimal effective concentration (hrpA promoter (T3SS) [1]; Dickeya dadantii, read-out: minimal inhibitory concentration on hrpA expression (concentration showing inhibitory effect)) is reported as 10 µM. For the same compound, the “Mean Fluorescence Intensity of GFP (hrpA, phrpA)” value (hrpA promoter (T3SS) [1]; [5]) was 9.3 ± 0.3, the “mean fluorescence intensity of GFP, hrpL promoter” value (hrpL promoter; 12 h) was 7.6 ± 0.2 and the “mean fluorescence intensity of GFP, hrpL promoter” value (hrpL promoter; 24 h) was 7.7 ± 0.2. The “mean fluorescence intensity of GFP, hrpS promoter” value (hrpS promoter; 12 h) was 27.7 ± 1.5, the “mean fluorescence intensity of GFP, hrpS promoter” value (hrpS promoter; 24 h) was 26.4 ± 0.6 and the “inhibitory effect on T3SS hrpS expression, in words” value (hrpS promoter; reporter plasmid phrpS) was “inhibited hrpS”. For the same compound, the “mean fluorescence intensity of GFP, vector control” value ([2]; 12 h) was 3.0 ± 0.6, the “mean fluorescence intensity of GFP, vector control” value ([2]; 24 h) was 4.3 ± 0.6 and the “Avg MFI ± SD, hrpA expression” value (hrpA promoter (T3SS) [3]; 6 h) was 206.9 ± 3.9. For the same compound, the “Avg MFI ± SD, hrpA expression” value (hrpA promoter (T3SS) [3]; 9 h) was 168.2 ± 24.9.
With `O=C(O)/C=C/c1ccccc1O` [Compound 006, Ortho-coumaric acid] the “change of average GFP fluorescence intensity of Ech3937 (phrpA) vs MM alone, in words” value (hrpA promoter (T3SS) [1]; 12 h) was “doubled”, the “GFP Mean Fluorescence Intensity, hrpA promoter” value (hrpA promoter (T3SS) [1]; Ech3937 (phrpA), 12 h, listed as OCA) was 82 ± 1 and the “GFP Mean Fluorescence Intensity, hrpA promoter” value (hrpA promoter (T3SS) [1]; Ech-Rif (phrpA), 6 h) was 18 ± 0. The “GFP Mean Fluorescence Intensity, hrpA promoter” value (hrpA promoter (T3SS) [1]; Ech-Rif (phrpA), 12 h) was 51 ± 2, the “GFP Mean Fluorescence Intensity, hrpA promoter” value (hrpA promoter (T3SS) [1]; Ech-Rif (phrpA), 24 h) was 49 ± 1 and the “GFP Mean Fluorescence Intensity, hrpA promoter” value (hrpA promoter (T3SS) [1]; gacA mutant Ech137 (phrpA), 6 h) was 4.9 ± 0.1. The “GFP Mean Fluorescence Intensity, hrpA promoter” value (hrpA promoter (T3SS) [1]; gacA mutant Ech137 (phrpA), 12 h) was 5.9 ± 0.1, the “GFP Mean Fluorescence Intensity, hrpA promoter” value (hrpA promoter (T3SS) [1]; gacA mutant Ech137 (phrpA), 24 h) was 8.3 ± 0 and the “GFP Mean Fluorescence Intensity, hrpA promoter” value (hrpA promoter (T3SS) [1]; [6]) was 6.5 ± 0.2. For the same compound, the “GFP Mean Fluorescence Intensity, hrpL promoter” value (hrpL promoter; Ech3937 (phrpL), 12 h) was 19 ± 0, the “GFP Mean Fluorescence Intensity, hrpS promoter” value (hrpS promoter; Ech3937 (phrpS), 12 h) was 56 ± 1 and the “GFP Mean Fluorescence Intensity, hrpS promoter” value (hrpS promoter; [7]) was 350 ± 17. For the same compound, the “GFP Mean Fluorescence Intensity, vector control” value ([2]; 6 h) was 2.0 ± 0, the “GFP Mean Fluorescence Intensity, vector control” value ([2]; 12 h) was 2.0 ± 0 and the “GFP Mean Fluorescence Intensity, vector control” value ([2]; 24 h) was 1.9 ± 0. The “effect on bacterial growth of Ech3937 in MM, in words” value (“effect on bacterial growth of Ech3937” below) [4] was “No reduction of bacterial growth”, the “Avg MFI ± SD, hrpA expression” value (hrpA promoter (T3SS) [3]; 6 h) was 443 ± 16.9 and the “Avg MFI ± SD, hrpA expression” value (hrpA promoter (T3SS) [3]; 9 h) was 437.8 ± 21.1.
`O=C(O)/C=C/c1ccccc1` [Compound 001, trans-cinnamic acid] was tested, and the “change of average GFP fluorescence intensity of Ech3937 (phrpA) vs MM alone, in words” value (hrpA promoter (T3SS) [1]; 12 h) was “doubled”, the “GFP Mean Fluorescence Intensity, hrpA promoter” value (hrpA promoter (T3SS) [1]; Ech3937 (phrpA), 6 h) was 22.3 ± 2.1 and the “GFP Mean Fluorescence Intensity, hrpA promoter” value (hrpA promoter (T3SS) [1]; Ech3937 (phrpA), 24 h) was 203.7 ± 16.1. For the same compound, the “GFP Mean Fluorescence Intensity, hrpA promoter” value (hrpA promoter (T3SS) [1]; [6]) was 6.2 ± 0.6, the “GFP Mean Fluorescence Intensity, hrpL promoter” value (hrpL promoter; Ech3937 (phrpL), 12 h) was 19 ± 1 and the “GFP Mean Fluorescence Intensity, hrpL promoter” value (hrpL promoter; hrpL mutant WPP96 (phrpL), 12 h) was 331 ± 27. The “GFP Mean Fluorescence Intensity, hrpS promoter” value (hrpS promoter; Ech3937 (phrpS), 12 h) was 54 ± 2, the “GFP Mean Fluorescence Intensity, hrpS promoter” value (hrpS promoter; [7]) was 360 ± 16 and the “GFP Mean Fluorescence Intensity, vector control” value ([2]; 12 h) was 1.9 ± 0. For the same compound, the “effect on bacterial growth of Ech3937” value [4] was “No reduction of bacterial growth”, the “Avg MFI ± SD, hrpA expression” value (hrpA promoter (T3SS) [3]; 6 h) was 471.2 ± 12.6 and the “Avg MFI ± SD, hrpA expression” value (hrpA promoter (T3SS) [3]; 9 h) was 432.6 ± 17.8.
For `O=C(O)/C=C/c1ccc(O)cc1` [Compound 004, para-coumaric acid], the “inhibitory effect on hrpA at 10 μM, in words” value (hrpA promoter (T3SS) [1]; 10 μM added to T3SS-inducing minimal medium (MM)) was “No inhibitory effect”, the “GFP Mean Fluorescence Intensity, hrpA promoter” value (hrpA promoter (T3SS) [1]; Ech3937 (phrpA), 12 h, listed as PCA) was 9.2 ± 0.4 and the “Mean Fluorescence Intensity of GFP (hrpA, phrpA)” value (hrpA promoter (T3SS) [1]; [5]) was 9.4 ± 0.1. For the same compound, the “Mean Fluorescence Intensity of GFP (hrpA, phrpA)” value (hrpA promoter (T3SS) [1]; Trial 2, MM supplemented with compound at 100 μM) was 9.3 ± 0.2, the “effect on GFP fluorescence intensity of Ech3937 (phrpA), in words” value (hrpA promoter (T3SS) [1]; concentrations at 0.001, 0.005 and 0.01) was “did not result in substantial reduction of GFP fluorescence intensity” and the “GFP Mean Fluorescence Intensity, hrpA promoter” value (hrpA promoter (T3SS) [1]; [6]) was 7.3 ± 0.1. For the same compound, the “GFP Mean Fluorescence Intensity, hrpA promoter” value (hrpA promoter (T3SS) [1]; hrpL mutant WPP96 (phrpA), 24 h) was 9.0 ± 1.6, the “GFP Mean Fluorescence Intensity, hrpA promoter” value (hrpA promoter (T3SS) [1]; hrpS mutant WPP90 (phrpA), 12 h) was 7.9 ± 0.2 and the “GFP Mean Fluorescence Intensity, hrpA promoter” value (hrpA promoter (T3SS) [1]; hrpS mutant WPP90 (phrpA), 24 h) was 9.3 ± 0.2. The “GFP Mean Fluorescence Intensity, hrpA promoter” value (hrpA promoter (T3SS) [1]; hrpX mutant WPP67 (phrpA), 12 h) was 7.9 ± 0.2, the “GFP Mean Fluorescence Intensity, hrpA promoter” value (hrpA promoter (T3SS) [1]; hrpX mutant WPP67 (phrpA), 24 h) was 9.0 ± 1.3 and the “GFP Mean Fluorescence Intensity, hrpA promoter” value (hrpA promoter (T3SS) [1]; hrpY mutant WPP92 (phrpA), 12 h) was 6.9 ± 0.1. The “GFP Mean Fluorescence Intensity, hrpA promoter” value (hrpA promoter (T3SS) [1]; hrpY mutant WPP92 (phrpA), 24 h) was 9.4 ± 0.7, the “GFP Mean Fluorescence Intensity, hrpL promoter” value (hrpL promoter; Ech3937 (phrpL), 12 h) was 7.8 ± 0.1 and the “GFP Mean Fluorescence Intensity, vector control” value ([2]; 12 h, listed as PCA) was 2.2 ± 0.2 and 2.3 ± 0.1. The “GFP Mean Fluorescence Intensity, vector control” value ([2]; 24 h) was 4.9 ± 0.1, the “effect on bacterial growth of Ech3937” value [4] was “Inhibition of bacterial growth was not observed” and the “Avg MFI ± SD, hrpA expression” value (hrpA promoter (T3SS) [3]; 6 h) was 920.6 ± 29.1. For the same compound, the “Avg MFI ± SD, hrpA expression” value (hrpA promoter (T3SS) [3]; 9 h) was 993.8 ± 43.3.
